# Source: patent US20220133717A1, “RABEXIMOD IN THE TREATMENT OF RHEUMATOID ARTHRITIS” (CYXONE AB, priority 2020, published 2022)
# How the values were obtained:
# [1] = tested on: patients with moderate or severe active rheumatoid arthritis; assay: Phase II clinical trial: efficacy (ACR20/50, DAS28, EULAR response, ACR components); format: in vivo, human
# Method: The primary objective of this study was to evaluate the efficacy (American College of Rheumatology 20) of Rabeximod administered orally once daily for 12 weeks in combination with a stable dose of methotrexate in patients with moderate or severe active rheumatoid arthritis. Efficacy was evaluated by American College of Rheumatology 20 (66/68 joint count) after 12 weeks of treatment.
# The primary endpoint of this study is the American College of Rheumatology (ACR20) 20 improvement measured after 12 weeks of treatment with study drug. The ACR20 is a composite score defined as an improvement of 20% in the number of swollen and tender joints and a 20% improvement in 3 of the following 5: • Patient self-assessed disability by modified Health Assessment Questionnaire (mHAQ) • Physician Global assessment • Subject Global assessment • Patient pain assessment • Acute phase reactant (C-reactive protein [CRP]) Secondary efficacy endpoints were as follows: • ACR20 improvement measured after 4 and 8 weeks of treatment • Subgroup analysis of ACR20 results from patients enrolled with baseline CRP >1.5 mg/dL. • ACR50/70 improvement measured after 4, 8 and 12 weeks • Original Disease Activity Score (DAS) change from baseline (according to the European League Against Rheumatism [EULAR] Response Criteria). Note: the Original DAS was replaced with DAS28 • Change from baseline in: number of swollen/tender joints, morning stiffness duration. Subject and Physician Global assessments, pain assessed by Visual Analogue Scale (VAS), self-assessed physical disability (mHAQ), erythrocyte sedimentation rate (ESR) and CRP • The evaluation of pharmacokinetic (PK) and pharmacodynamic (PD) high sensitive CRP, TNF-a, interleukin-6 [IL-6] and anti-cyclic citrullinated peptide antibody [anti-CCP]) over time
# This was a multicentre, multinational, dose-ranging, randomised, double-blind, multiple dose, placebo-controlled, parallel-group study of Rabeximod administered orally in a total of 225 enrolled patients with moderate or severe active RA. All patients must have been receiving weekly methotrexate treatment for at least 16 weeks (with unchanged doses for at least 8 weeks) up to Day 0 of study.
# Diagnosis of RA was based on the American Rheumatism Association (ARA) 1987 revised criteria, having an ACR global functional class of 1 to 3, stable methotrexate dose of at least 15 mg per week and central laboratory CRP level at study entry of at least 1.5 mg/dL and clinical findings of active disease (at least 6 swollen and 6 tender joints to palpation). Individual patient duration in the study was approximately 126 days (a 14-day screening period, an 84-day treatment period [12 weeks], and a 28 day [4-week] follow-up period).
# After meeting the inclusion and exclusion criteria and providing informed consent, patients were randomly assigned (1:1:1:1 ratio) to receive 1 of the following treatments: • 6.25 mg Rabeximod • 15 mg Rabeximod • 37.5 mg Rabeximod • Placebo
# An assessment of tender and swollen joints was performed for the ACR response criteria. Joints to be evaluated for disease activity assessment (using the ACR 66/68 joint count) included the following: temporomandibular, sternoclavicular, acromioclavicular, shoulder, elbow, wrist, all 5 metacarpophalangeal joints, 4 proximal interphalangeal joints, 4 distal interphalangeal, thumb interphalangeal joint, hip (for tenderness only), knee, ankle, tarsus, 5 metatarsophalangeal, 4 proximal interphalangeal and foot thumb interphalangeal joints at each side. In accordance with the protocol, an independent joint reviewer performed the rheumatology examination, where possible. If an independent joint reviewer was not available, the same examiner performed all rheumatology examinations for a patient throughout the study.
# Patient satisfaction in performing activities of daily living was assessed using the mHAQ. […]
# [2] = tested on: patients with moderate or severe active rheumatoid arthritis; assay: Phase II clinical trial: safety (AEs, physical examinations, vital signs, ECG)
# Excerpt: The Phase II study was a randomised, parallel-group, double-blind, dose-ranging, placebo-controlled study of Rabeximod in patients with moderate or severe active RA with an inadequate response to methotrexate.
# Safety assessments included AEs, vital signs, weight, physical examination, 12-lead ECG and safety laboratory tests (serum chemistry, haematology and urinalysis).
# Safety measurements for this study included AEs, clinical laboratory tests, physical examinations, vital signs and resting 12-lead ECGs.
structure (smiles),measurement,setting,value
"Cc1cc2nc3c4cc(Cl)ccc4n(CC(=O)NCCN(C)C)c3nc2cc1C [Rabeximod, 9-Chloro-2,3-dimethyl-6-(N,N-dimethylaminoethylamino-2-oxoethyl)-6H-indolo-[2,3-b]quinoxaline]","percentage mean reduction in joint pain, comparison of dose groups",[1]; 15 mg group,best results
same,"percentage of patients achieving ACR50, comparison of dose groups",[1]; 15 mg group,best results
same,"reduction in duration of morning stiffness, comparison of dose groups","[1]; 15 mg group, especially at week 16",best results
same,percentage of patients achieving ACR50 response compared with placebo,"[1]; ""At Week"" (number not given), 6.25, 15 and 37.5 mg groups",higher percentage
same,"change from baseline in each component of the ACR response (joint count 66/68, Global assessments VAS, joint pain, HAQ-DI, CRP, ESR)",[1]; Rabeximod groups,notable decrease (improvement)
same,change in mean DAS28 score from baseline,"[1]; Week 12, 6.25 mg group (placebo −0.983)",−1.063 points
same,change in mean DAS28 score from baseline,"[1]; Week 12, 15 mg group (placebo −0.983)",−1.214 points
same,change in mean DAS28 score from baseline,"[1]; Week 12, 37.5 mg group (placebo −0.983)",−1.204 points
same,proportion of patients achieving ACR20 compared with placebo,"[1]; Week 12, Rabeximod groups",larger proportion
same,increases in the proportions of patients achieving ACR50,[1]; Week 16,greater
same,"percentage mean reduction from baseline in swollen (66) and tender (68) joint counts, Physician and Subject Global assessments",[1]; Week 16,notable improvements
same,percentage of patients achieving a good or moderate EULAR response,"[1]; Week 16, 6.5 mg group (placebo 38.5%)",37.8%
same,"proportions of patients achieving ACR20, comparison of dose groups","[1]; Week 16, 15 mg group",best results
same,"reduction in swollen/tender joint counts and Global assessments, comparison of dose groups","[1]; Week 16, 15 mg group",best results
same,percentage of patients achieving a good or moderate EULAR response,"[1]; Week 16, 15 mg group (placebo 38.5%)",67.7%
same,percentage of patients achieving a good or moderate EULAR response,"[1]; Week 16, 37.5 mg group (placebo 38.5%)",55.8%
same,proportions of patients achieving ACR20,"[1]; Week 16, Rabeximod groups",continued to increase
same,duration of morning stiffness compared with placebo,"[1]; majority of time points, Rabeximod groups",greater reductions (improvement)
same,improvement in symptoms compared with placebo (plus methotrexate),"[1]; onset at least 8-12 weeks after first dose, further improvement at Week 16",greater improvement
same,percentage mean reduction from baseline in joint pain,[1]; week 1,notable
same,proportion of patients experiencing study drug-related AEs,[2]; 37.5 mg group (32 patients),58.2%
same,deaths during the study,"[2]; 12 weeks treatment, 4 weeks follow-up",No deaths
same,proportion of patients experiencing study drug-related AEs,[2]; Rabeximod groups pooled (placebo 11.1%),34.5%
same,majority of changes in physical examinations,"[2]; all occurred in the Rabeximod group, most reported as AEs",skin abnormalities
same,relation of skin abnormality events to dose,"[2]; majority in 37.5 mg group, then 15 mg, then 6.25 mg",dose response
same,tolerability,"[2]; once daily at 6.25, 15 and 37.5 mg, RA patients taking methotrexate",well-tolerated
same,changes in vital signs and 12-lead ECGs,[2]; over the course of the study,no notable changes
